# From US6326020A (priority 1998, dated 2001)
# How the values were obtained:
# thermal nociception = settings: rat, in vivo
# sciatic nerve [1] = system: sciatic nerve; design: species or system Sprague-Dawley rat; settings: rat, in vivo
# sciatic nerve [2] = system: sciatic nerve; design: species or system Sprague-Dawley rat; settings: rat, in vivo; remark: listed apart in the source
# sciatic nerve [3] = system: sciatic nerve; design: species or system Sprague-Dawley rat; settings: rat, in vivo; remark: listed apart in the source
# sciatic nerve [4] = system: sciatic nerve; design: species or system Sprague-Dawley rat; settings: rat, in vivo; remark: listed apart in the source
# nerve block = system: nerve block; design: species or system human; settings: in vivo
# sciatic nerve [5] = settings: rat, in vivo
compound,measurement,setting,value
"CCCCN1CCCCC1C(=O)Nc1c(C)cccc1C (centres unmarked) [Bupivacaine, bupivacaine]","Duration of block, thermal nociception",thermal nociception,104 ± 18 min
same,"Duration of Effective Block, PPR",sciatic nerve [1],162 ± 44 min
same,"""Missed block"" rate",sciatic nerve [2],0%
same,Modalities impaired,sciatic nerve [2],all four modalities were impaired in all rats
same,Rate of successful block,sciatic nerve [2],100%
same,"Duration of Effective Block, EPT",sciatic nerve [3],190 ± 56 min
same,"Duration of Effective Block, Hop",sciatic nerve [4],143 ± 48 min
"COc1cc(CNC(=O)CCCC/C=C/C(C)C)ccc1O [capsaicin, trans-8-methyl-N-vanillyl-6-nonenamide]",Duration of prolonged block,nerve block,3 to 4 days
same,"Dose required for prolonged block with TTX, fold below threshold for block from the vanilloid alone",sciatic nerve [5],more than 5 fold
same,Duration of prolonged block,sciatic nerve [5],2 days
Oc1cc2c(cc1O)CN(C(=S)NCCc1ccc(Cl)cc1)CCC2 [capsazepine],Reversal of established block from vanilloid-site 1 toxin combination,sciatic nerve [5],reverses established block
C=C(C)C12CC(C)C34OC(Cc5ccccc5)(OC1C3C=C(COC(=O)Cc1ccc(O)c(OC)c1)CC1(O)C(=O)C(C)=CC14)O2 (centres unmarked) [resiniferotoxin],Duration of prolonged block,nerve block,3 to 4 days
same,"Dose required for prolonged block with TTX, fold below threshold for block from the vanilloid alone",sciatic nerve [5],more than 5 fold
same,Duration of prolonged block,sciatic nerve [5],2 days
